A short description of this data set: Evaluation on solubility with respect to solvent. Type of data set: physicochemical. Conditions: organic solvent or mixture, thermodynamic from solid, stirred for one hour, visually checked. The procedure: Here, Compound (C) is a specific non-charge transporting compound which is not the specific position isomer mixture.
First, the Exemplary compounds and Compound (C) are respectively dissolved in tetrahydrofuran, and solubility of the solution is evaluated as follows.
1 g of Compound (C) is added to 10 ml of tetrahydrofuran at 20° C., the mixture is stirred for one hour, and solubility thereof is visually checked. A case where Compound (C) is dissolved is evaluated as A, a case where an insoluble part is slightly observed is evaluated as B, and a case where the solution yields white turbidity is evaluated as C.
In addition, solubility thereof when the solvent is changed from tetrahydrofuran to toluene, xylene, dichloroethane, chloroform, and butyl acetate is evaluated.

Like-named read-outs stand apart in the source and are kept apart here. Some results are limits rather than exact numbers.

A word on the solubility: it is how much of the substance goes into solution per volume. In the case of `C=Cc1ccc(COc2ccc(C(C)(c3ccc(OCc4ccc(C=C)cc4)cc3)c3ccc(OCc4ccc(C=C)cc4)cc3)cc2)cc1` [Compound (C)], the solubility at 1 h runs as follows: (1 g added to 10 ml of butyl acetate at 20° C., read-out: Evaluation on solubility Butyl acetate) under 100 mg/mL; (1 g added to 10 ml of chloroform at 20° C., read-out: Evaluation on solubility Chloroform) over 100 mg/mL; (1 g added to 10 ml of dichloroethane at 20° C., read-out: Evaluation on solubility Dichloroethane) over 100 mg/mL; (1 g added to 10 ml of tetrahydrofuran at 20° C., read-out: Evaluation on solubility Tetrahydrofuran) over 100 mg/mL; (1 g added to 10 ml of toluene at 20° C., read-out: Evaluation on solubility Toluene) under 100 mg/mL; (1 g added to 10 ml of xylene at 20° C., read-out: Evaluation on solubility Xylene) under 100 mg/mL.

Source of the values: patent US8900783B2, “Electrophotographic photoreceptor, process cartridge, and image forming apparatus” (Fuji Xerox Co., Ltd., priority 2013, dated 2014).
